Calls of active or inactive are those of the source.
Key:
[1] = Luminescence Cell-Based Dose Retest to Confirm Inhibitors of Cancer Stem Cells. [Related pubchem assays (depositor defined):AID2717, AID2721]; format: functional; details: Homo sapiens
[2] = target: T1, Heat shock factor protein 1 (Mus musculus, UniProt P38532); experiment: enhancement of HSF1-driven luciferase signal – cell-based, NIH3T3, luminescence, dose retest, confirmation (AID 435004); format: functional;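 note: stress induced by proteasome inhibitor MG132 added 30 min after compound; luciferase reporter driven by HSF1 response element in NIH3T3 cells; actives raise luminescence as potentiators of the MG132 stress response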
T1 sequence (P38532 whole entry): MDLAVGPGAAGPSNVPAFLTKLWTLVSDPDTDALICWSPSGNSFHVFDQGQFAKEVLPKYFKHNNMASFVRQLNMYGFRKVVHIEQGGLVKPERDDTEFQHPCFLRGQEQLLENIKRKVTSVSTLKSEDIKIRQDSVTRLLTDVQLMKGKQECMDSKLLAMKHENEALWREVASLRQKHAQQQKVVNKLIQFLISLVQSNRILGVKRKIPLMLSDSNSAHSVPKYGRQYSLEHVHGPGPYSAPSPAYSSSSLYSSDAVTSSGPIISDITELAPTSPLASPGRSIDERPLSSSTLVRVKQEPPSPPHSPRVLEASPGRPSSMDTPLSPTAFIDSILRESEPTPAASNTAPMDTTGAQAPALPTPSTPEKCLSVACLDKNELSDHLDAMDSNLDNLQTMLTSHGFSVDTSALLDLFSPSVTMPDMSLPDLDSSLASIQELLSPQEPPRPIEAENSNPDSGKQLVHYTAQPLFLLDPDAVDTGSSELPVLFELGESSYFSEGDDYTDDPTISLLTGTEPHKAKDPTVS

[3] = viability loss of HMLE_sh_eGFP cells – cell-based, luminescence, counter-screen for HMLE_sh_ECad selective toxicity project, dose response (AID 463074); format: functional, Homo sapiens;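 note: HMLE human mammary epithelial cells expressing control shRNA against eGFP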
Escherichia coli = experiment: microbe, parasite or virus in culture
[4] = target: Latent membrane protein 1 (Human herpesvirus 4 (strain B95-8), UniProt P03230); experiment: LMP1 TES1 pathway selectivity over dsRED control – imaging, HEK293T, dual-color eGFP/dsRED, cherry-picks, selectivity assay for LMP1 NF-kB inhibitor project, dose response (AID 588398); format: functional, cell-based
Sequence of Latent membrane protein 1 (P03230 whole entry): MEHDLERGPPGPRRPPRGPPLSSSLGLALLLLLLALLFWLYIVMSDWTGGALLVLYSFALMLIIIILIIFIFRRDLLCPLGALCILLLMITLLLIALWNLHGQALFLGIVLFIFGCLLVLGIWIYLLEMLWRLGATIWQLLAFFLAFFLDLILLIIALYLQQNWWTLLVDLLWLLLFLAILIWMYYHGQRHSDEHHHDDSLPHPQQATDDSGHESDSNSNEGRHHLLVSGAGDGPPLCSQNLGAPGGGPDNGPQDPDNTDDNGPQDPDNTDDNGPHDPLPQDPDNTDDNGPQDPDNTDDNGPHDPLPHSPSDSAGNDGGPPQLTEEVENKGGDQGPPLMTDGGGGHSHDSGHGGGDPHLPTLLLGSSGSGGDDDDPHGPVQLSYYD

[5] = Luminescence Cell-Based Dose Response HTS to Identify Inhibitors of 5'UTR Stem-Loop Driven Prion Protein mRNA Translation in H4 Neuroglioblastoma Cells. [Related pubchem assays: 1827 (Project Summary), 1813 (Primary HTS)]; format: functional
[6] = microbe, parasite or virus in culture; format: functional; details: Mycobacterium tuberculosis
CAAX prenyl protease 2 = CAAX prenyl protease 2 (Homo sapiens, UniProt Q9Y256); experiment: inhibition of Ras-converting CAAX protease Rce1 – biochemical, yeast membranes, quenched-peptide fluorescence, cherry-pick, dose response (AID 588849)
Sequence of CAAX prenyl protease 2 (Q9Y256 whole entry): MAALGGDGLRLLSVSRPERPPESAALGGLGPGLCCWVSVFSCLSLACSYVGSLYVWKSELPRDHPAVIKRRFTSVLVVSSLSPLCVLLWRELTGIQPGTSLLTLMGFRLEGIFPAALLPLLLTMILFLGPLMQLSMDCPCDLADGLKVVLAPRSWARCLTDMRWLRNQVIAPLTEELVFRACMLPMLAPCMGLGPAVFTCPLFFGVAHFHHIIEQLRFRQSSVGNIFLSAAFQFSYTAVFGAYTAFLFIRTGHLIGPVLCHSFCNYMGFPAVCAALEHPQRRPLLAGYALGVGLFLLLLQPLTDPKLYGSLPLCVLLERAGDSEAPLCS

[7] = luciferase reporter signal suppression in cells – H4 neuroglioma cells, luminescence, dose response (AID 1990); format: functional, cell-based
[8] = alpha-synuclein stem-loop luciferase translation blockers – H4 neuroglioma cells, luminescence, confirmation (AID 1988); format: functional, cell-based
BJ [9] = experiment: BJ-TERT-LT-ST fibroblast viability loss – cell-based, RAS-independent, luminescence, dose response (AID 1935); format: functional; details: Homo sapiens;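 note: BJ fibroblasts immortalized with TERT plus LT and ST oncogenes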
[10] = target: T1, Heat shock factor protein 1; experiment: decrease of HSF1-responsive luciferase luminescence – cell-based, NIH3T3, dose retest, confirmation (AID 2382); format: functional;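 note: NIH3T3 fibroblasts with HSF1-driven luciferase reporter stressed by proteasome inhibitor MG132; luminescence from HSF1-driven luciferase expression after 8 hours of MG132 stress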
[11] = DRD fibroblast viability loss – cell-based, non-viral oncogenic, luminescence, dose response (AID 1934); format: functional; details: Homo sapiens
BJ [12] = experiment: BJ-TERT fibroblast viability loss – cell-based, RAS-independent, luminescence, dose response (AID 1933); format: functional; details: Homo sapiens
BJ [13] = experiment: cells; format: functional, cell-based; details: Homo sapiens
BJ [14] = experiment: growth inhibition of engineered Ras-driven BJ cells – cell-based, alamar blue fluorescence, cherrypicked samples, dose response (AID 2631); format: functional; details: Homo sapiens;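 note: confirmatory dose-response assay in RAS-dependent BJ fibroblasts engineered with TERT, LT and ST, with cytotoxicity read by fluorescence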
Cytochrome P450 1A2 = target: T2, Cytochrome P450 1A2 (Homo sapiens, UniProt P05177);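 note: PubChem cytochrome P450 panel assay, CYP1A2 panel member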
T2 sequence (P05177 whole entry): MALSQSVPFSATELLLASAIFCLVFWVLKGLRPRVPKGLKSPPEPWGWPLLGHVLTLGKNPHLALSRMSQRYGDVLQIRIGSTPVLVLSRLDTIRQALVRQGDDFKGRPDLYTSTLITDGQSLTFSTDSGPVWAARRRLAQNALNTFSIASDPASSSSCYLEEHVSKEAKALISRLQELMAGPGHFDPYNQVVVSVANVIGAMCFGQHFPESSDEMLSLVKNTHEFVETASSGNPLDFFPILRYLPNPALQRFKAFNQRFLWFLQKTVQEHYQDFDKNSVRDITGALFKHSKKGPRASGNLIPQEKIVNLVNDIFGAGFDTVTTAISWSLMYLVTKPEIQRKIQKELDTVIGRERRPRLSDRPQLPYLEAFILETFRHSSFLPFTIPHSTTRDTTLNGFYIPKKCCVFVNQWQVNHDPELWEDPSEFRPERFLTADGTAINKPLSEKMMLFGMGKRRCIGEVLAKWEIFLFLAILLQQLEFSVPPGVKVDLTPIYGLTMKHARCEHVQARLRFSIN

Protein skinhead-1 = target: T3, Protein skinhead-1 (Caenorhabditis elegans, UniProt P34707); format: functional
T3 sequence (P34707 whole entry): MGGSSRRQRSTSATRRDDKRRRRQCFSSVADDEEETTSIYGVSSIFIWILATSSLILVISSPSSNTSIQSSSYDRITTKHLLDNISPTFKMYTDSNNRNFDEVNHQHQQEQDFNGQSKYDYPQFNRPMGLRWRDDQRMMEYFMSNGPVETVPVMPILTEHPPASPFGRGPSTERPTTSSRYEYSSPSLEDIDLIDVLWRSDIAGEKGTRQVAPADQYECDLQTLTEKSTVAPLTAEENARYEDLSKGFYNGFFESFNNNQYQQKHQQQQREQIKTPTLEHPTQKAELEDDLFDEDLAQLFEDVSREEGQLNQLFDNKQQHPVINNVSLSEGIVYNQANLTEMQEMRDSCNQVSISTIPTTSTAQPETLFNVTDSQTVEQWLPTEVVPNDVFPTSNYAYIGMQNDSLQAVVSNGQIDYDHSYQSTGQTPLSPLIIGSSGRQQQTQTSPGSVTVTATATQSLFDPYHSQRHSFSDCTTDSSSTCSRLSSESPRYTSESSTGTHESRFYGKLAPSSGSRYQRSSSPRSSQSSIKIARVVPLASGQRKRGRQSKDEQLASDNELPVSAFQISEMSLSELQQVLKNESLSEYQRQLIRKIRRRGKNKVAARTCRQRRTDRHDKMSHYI

Cytochrome P450 2D6 = Cytochrome P450 2D6 (Homo sapiens, UniProt P10635);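 note: CYP2D6 member of a cytochrome P450 panel assay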
Sequence of Cytochrome P450 2D6 (P10635 whole entry): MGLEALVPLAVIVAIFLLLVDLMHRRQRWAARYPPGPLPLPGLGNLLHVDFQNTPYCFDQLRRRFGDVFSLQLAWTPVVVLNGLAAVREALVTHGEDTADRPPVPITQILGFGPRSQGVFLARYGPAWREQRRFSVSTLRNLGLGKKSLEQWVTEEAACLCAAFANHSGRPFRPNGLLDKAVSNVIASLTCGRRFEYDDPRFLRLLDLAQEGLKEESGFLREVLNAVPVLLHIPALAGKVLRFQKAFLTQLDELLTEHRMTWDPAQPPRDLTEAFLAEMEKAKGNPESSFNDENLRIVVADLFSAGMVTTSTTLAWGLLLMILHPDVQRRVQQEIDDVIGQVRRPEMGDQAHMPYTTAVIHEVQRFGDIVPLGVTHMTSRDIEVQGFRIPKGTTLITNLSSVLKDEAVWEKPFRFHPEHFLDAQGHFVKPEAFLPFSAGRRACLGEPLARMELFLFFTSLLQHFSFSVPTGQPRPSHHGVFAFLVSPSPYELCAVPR

fMet-Leu-Phe receptor = target: T4, fMet-Leu-Phe receptor (Homo sapiens, UniProt P21462); experiment: formyl peptide receptor binders – dose response (AID 519); format: functional
T4 sequence (P21462 whole entry): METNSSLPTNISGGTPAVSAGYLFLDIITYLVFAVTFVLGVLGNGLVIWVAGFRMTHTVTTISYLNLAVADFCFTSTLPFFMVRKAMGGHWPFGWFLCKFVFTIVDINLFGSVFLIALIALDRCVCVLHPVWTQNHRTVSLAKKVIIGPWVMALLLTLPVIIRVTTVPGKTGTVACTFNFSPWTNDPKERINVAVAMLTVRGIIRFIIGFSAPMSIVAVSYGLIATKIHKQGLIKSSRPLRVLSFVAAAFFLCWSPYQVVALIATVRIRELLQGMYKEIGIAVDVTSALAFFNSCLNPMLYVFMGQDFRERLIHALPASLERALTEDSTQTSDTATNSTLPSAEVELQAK

Phospholipase D2 = Phospholipase D2 (Homo sapiens, UniProt O14939); experiment: cellular phospholipase D2 inhibition IC50 – cell-based, dose response (AID 602147); format: functional;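 note: cellular assay in HEK293 cells overexpressing GFP-tagged PLD2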
Sequence of Phospholipase D2 (O14939 whole entry): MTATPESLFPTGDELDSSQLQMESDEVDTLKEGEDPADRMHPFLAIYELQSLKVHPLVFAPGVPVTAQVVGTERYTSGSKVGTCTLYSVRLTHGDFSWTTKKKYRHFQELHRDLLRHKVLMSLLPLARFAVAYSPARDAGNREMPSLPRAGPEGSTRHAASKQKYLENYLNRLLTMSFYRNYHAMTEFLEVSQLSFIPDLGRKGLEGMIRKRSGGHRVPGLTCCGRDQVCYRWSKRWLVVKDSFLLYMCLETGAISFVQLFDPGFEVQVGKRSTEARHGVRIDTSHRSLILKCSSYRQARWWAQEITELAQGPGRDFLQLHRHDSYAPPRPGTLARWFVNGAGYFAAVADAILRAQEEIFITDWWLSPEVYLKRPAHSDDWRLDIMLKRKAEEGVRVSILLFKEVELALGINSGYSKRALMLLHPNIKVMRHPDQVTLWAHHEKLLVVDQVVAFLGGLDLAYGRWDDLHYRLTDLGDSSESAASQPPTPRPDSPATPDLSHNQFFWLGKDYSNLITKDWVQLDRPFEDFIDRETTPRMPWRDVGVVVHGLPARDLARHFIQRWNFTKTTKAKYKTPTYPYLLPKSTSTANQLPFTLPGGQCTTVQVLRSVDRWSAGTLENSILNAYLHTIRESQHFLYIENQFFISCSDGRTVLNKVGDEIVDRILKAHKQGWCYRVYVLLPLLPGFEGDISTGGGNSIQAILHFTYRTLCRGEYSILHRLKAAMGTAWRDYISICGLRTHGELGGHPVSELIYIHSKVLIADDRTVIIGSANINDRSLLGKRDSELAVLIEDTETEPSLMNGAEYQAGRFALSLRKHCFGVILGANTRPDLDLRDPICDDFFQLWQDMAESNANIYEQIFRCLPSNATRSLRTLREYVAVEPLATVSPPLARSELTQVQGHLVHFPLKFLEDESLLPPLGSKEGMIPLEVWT

Phospholipase D1 = Phospholipase D1 (Homo sapiens, UniProt Q13393); experiment: cellular phospholipase D1 inhibition IC50 – cell-based, dose response (AID 602151); format: functional;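 note: cellular PLD1 assay in Calu-1 cells stimulated with PMA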
Sequence of Phospholipase D1 (Q13393 whole entry): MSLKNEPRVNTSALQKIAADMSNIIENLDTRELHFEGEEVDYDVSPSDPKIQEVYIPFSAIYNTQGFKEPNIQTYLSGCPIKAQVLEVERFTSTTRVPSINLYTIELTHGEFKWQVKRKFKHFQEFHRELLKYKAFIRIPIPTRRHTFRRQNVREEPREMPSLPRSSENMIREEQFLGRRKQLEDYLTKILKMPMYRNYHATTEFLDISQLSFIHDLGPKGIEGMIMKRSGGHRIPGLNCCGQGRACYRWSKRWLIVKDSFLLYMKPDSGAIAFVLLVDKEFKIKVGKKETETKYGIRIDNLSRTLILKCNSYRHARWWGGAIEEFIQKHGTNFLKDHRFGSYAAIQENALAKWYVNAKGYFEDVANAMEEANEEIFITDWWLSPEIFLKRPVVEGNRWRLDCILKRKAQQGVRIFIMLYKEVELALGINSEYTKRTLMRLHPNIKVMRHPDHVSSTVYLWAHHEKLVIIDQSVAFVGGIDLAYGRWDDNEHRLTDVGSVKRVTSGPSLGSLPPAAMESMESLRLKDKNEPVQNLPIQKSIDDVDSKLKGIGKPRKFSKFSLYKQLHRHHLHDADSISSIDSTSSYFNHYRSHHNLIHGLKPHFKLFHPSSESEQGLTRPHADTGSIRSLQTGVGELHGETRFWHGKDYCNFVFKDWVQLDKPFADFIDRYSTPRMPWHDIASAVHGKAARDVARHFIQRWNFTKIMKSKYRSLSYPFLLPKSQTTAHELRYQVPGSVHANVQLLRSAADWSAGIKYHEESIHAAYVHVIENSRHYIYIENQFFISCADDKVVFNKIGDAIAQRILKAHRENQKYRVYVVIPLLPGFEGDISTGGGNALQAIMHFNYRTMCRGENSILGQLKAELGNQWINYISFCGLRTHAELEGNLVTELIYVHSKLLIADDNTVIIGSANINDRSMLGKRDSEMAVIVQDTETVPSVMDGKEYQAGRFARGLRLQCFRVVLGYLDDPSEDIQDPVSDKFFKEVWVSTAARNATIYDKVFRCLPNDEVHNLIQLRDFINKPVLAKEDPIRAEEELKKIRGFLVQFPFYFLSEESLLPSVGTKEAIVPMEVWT

Nonstructural protein 1 = Nonstructural protein 1 (Influenza A virus, UniProt Q194T2); format: functional, Influenza A virus (A/California/07/2009(H1N1))
Sequence of Nonstructural protein 1 (Q194T2 whole entry): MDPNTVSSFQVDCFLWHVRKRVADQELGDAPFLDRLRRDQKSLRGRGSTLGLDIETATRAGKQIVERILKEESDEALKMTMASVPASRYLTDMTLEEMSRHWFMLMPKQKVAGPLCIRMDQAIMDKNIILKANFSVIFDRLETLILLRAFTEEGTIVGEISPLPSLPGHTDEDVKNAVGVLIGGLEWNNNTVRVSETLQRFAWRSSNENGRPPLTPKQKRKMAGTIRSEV

**Q.** Which AC50 [1] does the source give for `O=C1C2CC=CCC2C(=O)N1c1ccc(NCCc2ccccc2)c([N+](=O)[O-])c1` (centres undefined) here?
**A.** 0.209 µM (active)

**Q.** What about the EC50 [2] of the same compound?
**A.** 13.4 µM (active)

**Q.** What about the AC50 [3] of the same compound?
**A.** 36.3 µM (active)

**Q.** For `Cc1c(N=C2NC3(CCCCC3)Cc3ccccc32)c(=O)n(-c2ccccc2)n1C`, which AC50 (Escherichia coli) is on record?
**A.** > 150 µM (inactive)

**Q.** With `O=[N+]([O-])c1ccc(CN2CC=C(c3ccccc3)CC2)cc1` as the compound, how does the AC50 [4] read?
**A.** 178 µM (active)

**Q.** Which AC50 (Escherichia coli) does the source give for `OCCN1CCN(C(S)=Nc2ccc(Oc3ccccc3)cc2)CC1` here?
**A.** 82.3 µM (active)

**Q.** With `CN(C)CCCN(C(=O)c1cc(-c2cccs2)nc2ccccc12)c1nc2ccc(F)cc2s1` as the compound, how does the EC50 [5] read?
**A.** 12.2 µM (active)

**Q.** And the CC50 [6]?
**A.** 25.1 µM (active)

**Q.** And the AC50 (CAAX prenyl protease 2)?
**A.** 29 µM (active)

**Q.** And the EC50 [7]?
**A.** > 60 µM (not active)

**Q.** What about the EC50 [8] of the same compound?
**A.** 8.08 µM (active)

**Q.** Which EC50 (BJ [9]) does the source give for `CC(C)c1onc(C(=O)N2CCN(C(c3ccccc3)c3ccccc3)CC2)c1[N+](=O)[O-]` here?
**A.** > 150 µM (not active)

**Q.** And the EC50 [10]?
**A.** 3.16 µM (active)

**Q.** And the EC50 [11]?
**A.** 2.69 µM (active)

**Q.** What about the EC50 (BJ [12]) of the same compound?
**A.** 0.621 µM (inconclusive)

**Q.** And the EC50 (BJ [13])?
**A.** 14.4 µM (inconclusive)

**Q.** What about the EC50 (BJ [14]) of the same compound?
**A.** 5.72 µM (active)

**Q.** For `Cc1ccc(C)c(-n2c(CNC(=O)c3ccco3)nnc2SCC(=O)N2CCc3ccccc32)c1`, which AC50 (Cytochrome P450 1A2) is on record?
**A.** 2.51 µM (inconclusive)

**Q.** And the IC50 (Protein skinhead-1)?
**A.** > 100 µM (inactive)

**Q.** What about the AC50 (Cytochrome P450 2D6) of the same compound?
**A.** inconclusive

**Q.** What about the Ki (fMet-Leu-Phe receptor) of the same compound?
**A.** > 66.7 µM (inactive)

**Q.** Which IC50 (Phospholipase D2) does the source give for `O=C(NCCN1CCC(n2c(=O)[nH]c3ccccc32)CC1)c1cc([N+](=O)[O-])cc([N+](=O)[O-])c1` here?
**A.** 1.32 µM (active)

**Q.** What about the IC50 (Phospholipase D1) of the same compound?
**A.** 0.27 µM (active)

**Q.** Which results are given for `O=C(NCCN1CCC(n2c(=O)[nH]c3ccccc32)CC1)Nc1cccc(F)c1`?
**A.** IC50 (Phospholipase D2): 2.3 µM (active); IC50 (Phospholipase D1): 0.078 µM (active)

**Q.** With `COc1ccc(/C=C2\CCC/C(=C\C=N\N(C)C)C2=O)cc1` as the compound, how does the CC50 [6] read?
**A.** 9.83 µM (active)

**Q.** What about the IC50 (Nonstructural protein 1) of the same compound?
**A.** 50.6 µM (active)

**Q.** And the AC50 [1]?
**A.** 25 µM (active)

**Q.** What about the AC50 [3] of the same compound?
**A.** 20.8 µM (active)

Source: ChEMBL document CHEMBL1201862, “PubChem BioAssay data set” (2004)
